Data on 1 compound can be found in patent publication US11020375B2, “Edaravone dosage form” (SUZHOU AUZONE BIOLOGICAL TECHNOLOGY CO., LTD, priority 2016, dated 2021).

SMILES strings stand for the structures.

Data set [1] in a line: Screening drug carrier Soluplus and optimizing solid dispersion: solubility of Edaravone by HPLC. Format: physicochemical. The following applies: 1%-6% w/v carrier solutions, 24 hours at room temperature (FIG. 2).
Description: To separate glass vials, 1%, 2%, 3%, 4%, 5% and 6% w/v solutions of different carriers was added, respectively. An excess amount of Edaravone was added to the above mentioned solutions followed by continuous rotation using a mechanical shaker (Axyos Technologies, Brisbane, Australia) throughout the test for 24 hours at room temperature. After reaching equilibrium, each vial was centrifuged at 3000 rpm for 5 min, and excess insoluble Edaravone was discarded by filtration through 0.45 μm PVDF syringe filter. Subsequently, the filtrates were diluted using methanol. The solubility analysis was performed in triplicate by using the previously developed and validated HPLC method.
A short description of data set [2]: Stability studies in simulated gastrointestinal fluids at various pHs. Format: physicochemical. The protocol:
Simulated gastrointestinal fluids (without enzymes and bile component) were prepared according to the USP methods. SGF (simulated gastric fluid) 1.2 pH (USP) and SIF (Simulating Intestinal fluid) 6.8 pH (USP) and 7.4 pH. To determine the chemical stability of SD formulations, the solutions in miliQ water was prepared and used. SD formulation was dissolved in aforesaid buffer solutions. Samples were collected at the predetermined time interval and filtered through 0.45 μm PVDF syringe filter. All samples were analysed in triplicate by HPLC.

As for `CC1=NN(c2ccccc2)C(=O)C1` [Edaravone, 3-methyl-1-phenyl-2-pyrazol-5-one], the “solubility of Edaravone in Soluplus carrier solutions” value in data set [1] is “solubility improvement in concentration-dependent manner”. For the same compound, the “stability in biorelevant media” value in data set [2] (acidic pH (FIG. 8A)) is reported as “maintained substantially constant”; in data set [2] (neutral to basic pH (FIG. 8A)), “significant degradation”.
